From patent US8541167B2 (priority 2004, dated 2013)
Read-outs that look alike come from different tables or passages of the source.

Legend:
[1] = system: live vaccinia virus (Dryvax); set-up: species or system A/NCr mice; conditions: mouse, in vivo
[2] = in vivo; cited from earlier work
orthopoxvirus = system: orthopoxvirus; set-up: species or system A/NCr mice; conditions: mouse, in vivo

Row | Compound | Lesion score [1] | severity of vaccine lesions and healing [1] | Lesion score ([1]; 12.5 mg/kg) | oral bioavailability [2] | post challenge anti-orthopoxvirus antibody titers, presence vs absence of CDV (orthopoxvirus) | pre-challenge anti-orthopoxvirus antibody titers, presence vs absence of CDV (orthopoxvirus) | attenuation of lesion development and acceleration of lesion resolution, compared with CDV [1]
1 | Nc1ccn(C[C@@H](CO)OCP(=O)(O)O)c(=O)n1 [Cidofovir] | 0 | decreased the severity of vaccine lesions and facilitated healing | 0 | low | similar | lower | –
2 | hexadecyloxypropyl-CDV [HDP-CDV] | – | decreased the severity of vaccine lesions and facilitated healing | – | – | – | – | more efficacious than CDV
